Structures are written as SMILES. A value given as a limit tells only on which side of the number the result lay.

As a reminder, the IC50 is the concentration needed to halve the response being measured.

One assay addresses HIV-1 integrase (Human immunodeficiency virus type 1 group M subtype B, UniProt P04585). Nature of the assay: HIV-1 integrase inhibition assay (radiolabeled duplex substrate corresponding to the U5 end of the HIV LTR). The assay is classed as biochemical.
Conditions: not given
The procedure: For the purpose of Table 1 to 4, the HIV-1 integrase inhibition assay was carried out following a known procedure (Burke, Jr. T. R. et al., J. Med. Chem. 38, 4171-4178 (1995)). A suitable radiolabeled duplex substrate corresponding to the U5 end of the HIV LTR was used.
For the purposes of Table 1 to 4 the HIV-1 integrase inhibition assay was based on a known procedure (Hazuda, D. J. et al., Nucleic Acids Res. 22 1121-1122 (1994)).
Regarding `Cc1ccc(C(NC(=O)CC[C@H](NC(=O)c2ccc(O)c(O)c2)C(=O)NCc2ccc(O)c(O)c2)(c2ccccc2)c2ccccc2)cc1` [Example 32, N-[Nα-(3,4-Dihydroxybenzoyl)-Nδ-methyltrityl-L-glutaminyl]-3,4-dihydroxybenzylamine], half-maximal inhibition (IC50) was put at 256 nM. Same read-out and setting: the result for `Cc1ccc(C(NC(=O)CC[C@H](NC(=O)/C=C/c2ccc(O)c(O)c2)C(=O)NCc2ccc(O)c(O)c2)(c2ccccc2)c2ccccc2)cc1` [Example 33, N-(Nα-Caffeoyl-Nδ-methyltrityl-L-glutaminyl)-3,4-dihydroxybenzylamine] reads 155 nM; that for `O=C(N[C@@H](COCc1ccccc1)C(=O)NCCc1ccc(O)c(O)c1)c1ccc(O)c([N+](=O)[O-])c1` [Example 34, N-[Nα-(4-Hydroxy-3-nitrobenzoyl)-O-benzyl-L-seryl]dopamine], 1800 nM. In the case of `O=C(/C=C/c1cccc([N+](=O)[O-])c1)N[C@@H](Cc1cn(C(c2ccccc2)(c2ccccc2)c2ccccc2)cn1)C(=O)NCCc1ccc(O)c(O)c1` [Example 35, N-(Nα-(3-Nitrocinnamoyl)-Nτ-trityl-L-histidinyl)dopamine], the IC50 amounted to 1200 nM.

Turning to `O=C(NCCCC[C@H](NC(=O)c1c(O)cc(O)cc1O)C(=O)NCCc1ccc(O)c(O)c1)OCc1ccccc1` [Example 37, N-[Nα-(2,4,6-Trihydroxybenzoyl)-Nε-benzyloxycarbonyl-L-lysyl]dopamine], inhibition was half-maximal at 1600 nM (IC50). Same read-out and setting: the result for `O=C(N[C@@H](CSC(c1ccccc1)(c1ccccc1)c1ccccc1)C(=O)NCCc1ccc(O)c(O)c1)c1c(O)cccc1F` [Example 38, N-[Nα-(2-Fluoro-6-Hydroxybenzoyl)-S-trityl-L-cysteinyl]dopamine] reads 1400 nM; that for `O=C(N[C@@H](Cc1cn(C(c2ccccc2)(c2ccccc2)c2ccccc2)cn1)C(=O)NCCc1ccc(O)c(O)c1)c1cc(O)c(O)c(O)c1` [Example 39, N-[Nα-(3,4,5-Trihydroxybenzoyl)-Nτ-trityl-L-histidinyl]dopamine], 222 nM; that for `O=C(C=Cc1ccc(O)c(O)c1)NC(Cc1cn(Cc2ccccc2)cn1)C(=O)NCCc1ccc(O)c(O)c1` [Example 40, N-(Nα-Caffeoyl-Nτ-benzyl-L-histidinyl)dopamine], 836 nM. `O=C(C=Cc1ccc([N+](=O)[O-])cc1)NC(Cc1cn(C(c2ccccc2)(c2ccccc2)c2ccccc2)cn1)C(=O)NCCc1ccc(O)c(O)c1` [Example 41, N-(Nα-(4-Nitrocinnamoyl)-Nτ-trityl-L-histidinyl)dopamine]: the IC50 was determined as 1140 nM. Same read-out and setting: for `CC(C)(C)OC[C@H](NC(=O)/C=C/c1ccc(O)c(O)c1)C(=O)NCCc1ccc(O)c(O)c1` [Example 42, N-(Nα-Caffeoyl-O-tert-butyl-L-seryl)dopamine] the value was 442 nM; for `CC(C)(C)OC[C@H](NC(=O)c1cc(O)c(O)c(O)c1)C(=O)NCCc1ccc(O)c(O)c1` [Example 43, N-[Nα-(3,4,5-Trihydroxybenzoyl)-O-tert-butyl-L-seryl]dopamine], 152 nM; for `COc1ccc(OC)c(C=CC(=O)N[C@@H](COC(C)(C)C)C(=O)NCCc2ccc(O)c(O)c2)c1` [Example 44, N-[Nα-(2,5-Dimethoxycinnamoyl)-O-tert-butyl-L-seryl]dopamine], more than 10000 nM. `O=C(N[C@@H](CO)C(=O)NCCc1ccc(O)c(O)c1)c1cc(O)c(O)c(O)c1` [Example 45, N-[Nα-(3,4,5-Trihydroxybenzoyl)-L-seryl]dopamine]: the IC50 is 446 nM.

Consider `COc1ccc(OC)c(C=CC(=O)N[C@@H](CO)C(=O)NCCc2ccc(O)c(O)c2)c1` [Example 46, N-[Nα-(2,5-Dimethoxycinnamoyl)-L-seryl]dopamine], for which the half-maximal inhibitory concentration (IC50) is more than 10000 nM.

For the molecule `Cc1ccc(C(NC(=O)CC[C@H](NC(=O)/C=C/c2ccc(O)c(O)c2)C(=O)NCCc2ccc(O)c(O)c2)(c2ccccc2)c2ccccc2)cc1` [Example 48, N-(Nα-Caffeoyl-Nδ-methyltrityl-L-glutaminyl)dopamine], the IC50 stood at 1150 nM. On the same count and under the same terms, the result for `Cc1ccc(C(NC(=O)CC[C@H](NC(=O)c2ccc(O)c(O)c2)C(=O)NCCc2ccc(O)c(O)c2)(c2ccccc2)c2ccccc2)cc1` [Example 49, N-[Nα-(3,4-Dihydroxybenzoyl)-Nδ-methyltrityl-L-glutaminyl]dopamine] reads 1300 nM; that for `Cc1ccc(C(NC(=O)CC[C@H](NC(=O)/C=C/c2cccc([N+](=O)[O-])c2)C(=O)NCCc2ccc(O)c(O)c2)(c2ccccc2)c2ccccc2)cc1` [Example 50, N-[Nα-(3-Nitrocinnamoyl)-Nδ-methyltrityl-L-glutaminyl]dopamine], 3950 nM.

On to `O=C(N[C@@H](Cc1cn(C(c2ccccc2)(c2ccccc2)c2ccccc2)cn1)C(=O)NCCc1ccc(O)c(O)c1)c1ccc(O)cc1` [Example 52, N-[Nα-(4-Hydroxybenzoyl)-Nτ-trityl-L-histidinyl]dopamine], for which the IC50 came to 3300 nM. Still for that read-out and setting: for `CC(C)(C)OC(=O)NCCC[C@H](NC(=O)c1cc(O)c(O)c(O)c1)C(=O)NCCc1ccc(O)c(O)c1` [Example 54, N-[Nα-(3,4,5-Trihydrozybenzoyl)-Nδ-butoxycarbonyl-L-ornithyl]dopamine] the value was 374 nM. In turn, `O=C(NCCCC[C@H](NC(=O)c1cc2cccc(O)c2cc1O)C(=O)NO)c1cc2cccc(O)c2cc1O` [Example 56, Nα,Nε-di-(3,5-Dihydroxynaphthyl-2-carbonyl)-L-lysine hydroxylamide] registered an IC50 of 5300 nM.

As to `O=C(N[C@@H](Cc1ccc(O)cc1)C(=O)NCCc1ccc(O)c(O)c1)c1cc2cccc(O)c2cc1O` [Example 57, N-[Nα-(3,5-Dihydroxynaphthyl-2-carbonyl)-L-tyrosyl]dopamine], the 50% inhibitory concentration (IC50) is 1100 nM. Same read-out and setting: for `O=C(N[C@@H](Cc1ccc(O)cc1)C(=O)NCCc1ccc(O)c(O)c1)c1cc(O)c2cccc(O)c2n1` [Example 58, N-[Nα-(4,8-Dihydroxyquinoline-2-carbonyl)-L-tyrosyl]dopamine] the value was 1200 nM; for `O=C(N[C@@H](Cc1c[nH]c2ccccc12)C(=O)NCCc1ccc(O)c(O)c1)c1cc2cccc(O)c2cc1O` [Example 59, N-[Nα-(3,5-Dihydroxynaphthyl-2-carbonyl)-L-tryptophanyl]dopamine], 620 nM; for `O=C(N[C@@H](Cc1ccc(O)c(O)c1)C(=O)NCCc1ccc(O)c(O)c1)c1cc2cccc(O)c2cc1O` [Example 60, N-[Nα-(3,5-Dihydroxynaphthyl-2-carbonyl)-L-3,4-dihydroxyphenylalanyl]dopamine], 1800 nM. Regarding `NC(=O)C[C@H](NC(=O)c1cc2cccc(O)c2cc1O)C(=O)NCCc1ccc(O)c(O)c1` [Example 61, N-[Nα-(3,5-Dihydroxynaphthyl-2-carbonyl)-L-asparagyl]dopamine], the IC50 is more than 5000 nM. Still for that read-out and setting: the result for `CC(C)(C)OC(=O)C[C@H](NC(=O)c1cc(O)c2cccc(O)c2n1)C(=O)NCCc1ccc(O)c(O)c1` [Example 62, N-[Nα-(4,8-Dihydroxyquinoline-2-carbonyl)-Oγ-ted-butyl-L-aspartyl]dopamine] reads more than 5000 nM; that for `O=C(C[C@H](NC(=O)c1cc(O)c2cccc(O)c2n1)C(=O)NCCc1ccc(O)c(O)c1)NC(c1ccccc1)(c1ccccc1)c1ccccc1` [Example 64, N-[Nα-(4,8-Dihydroxyquinoline-2-carbonyl)-Nγ-trityl-L-asparagyl]dopamine], 7100 nM; that for `O=C(NCCCC[C@H](NC(=O)c1cc2cccc(O)c2cc1O)C(=O)NCCc1ccc(O)c(O)c1)c1cc2cccc(O)c2cc1O` [Example 66, N-[Nα,Nε-di-(3,5-Dihydroxynaphthyl-2-carbonyl)-L-lysyl]dopamine], more than 5000 nM. For `NC(=O)C[C@H](NC(=O)c1cc(O)c2cccc(O)c2n1)C(=O)NCCc1ccc(O)c(O)c1` [Example 67, N-[Nα-(4,8-Dihydroxyquinoline-2-carbonyl)-L-asparagyl]dopamine], the IC50 is more than 5000 nM.

As for `O=C(N[C@@H](Cc1ccc(O)cc1)C(=O)NCc1ccc(O)c(O)c1)c1cc(O)c2cccc(O)c2n1` [Example 68, N-[Nα-(4,8-Dihydroxyquinoline-2-carbonyl)-L-tyrosyl]-3,4-dihydroxybenzylamine], the IC50 is more than 5000 nM. `Cc1ccc(C(NC(=O)CC[C@H](NC(=O)c2cc(O)c3cccc(O)c3n2)C(=O)NCc2ccc(O)c(O)c2)(c2ccccc2)c2ccccc2)cc1` [Example 69, N-[Nα-(4,8-Dihydroxyquinoline-2-carbonyl)-Nδ-methyltrityl-L-glutaminyl]-3,4-dihydroxybenzylamine] came in with an IC50 of 346 nM. Still for that read-out and setting: the result for `O=C(N[C@@H](Cc1cn(C(c2ccccc2)(c2ccccc2)c2ccccc2)cn1)C(=O)NCc1ccc(O)c(O)c1)c1cc(O)c2cccc(O)c2n1` [Example 70, N-[Nα-(4,8-Dihydroxyquinoline-2-carbonyl)-Nτ-trityl-L-histidinyl]-3,4-dihydroxybenzylamine] reads 403 nM.

The same assay, now with this note: Table 1, compounds of formula II′; read-out: IC50.
For `Cc1ccc(C(c2ccccc2)(c2ccccc2)n2cnc(C[C@H](NC(=O)c3ccc(O)c([N+](=O)[O-])c3)C(=O)NCCc3ccc(O)c(O)c3)c2)cc1` [Example 36, N-[Nα-(4-Hydroxy-3-nitrobenzoyl)-Nτ-methyltrityl-L-histidinyl]dopamine], the half-inhibitory concentration (IC50) amounted to 575 nM.

The same assay, now with this note: Table 2, compounds of formula III′; read-out: IC50.
Turning to `O=C(NCCCC[C@H](NC(=O)c1cc2cccc(O)c2cc1O)C(=O)OCc1ccccc1)c1cc2cccc(O)c2cc1O` [Example 55, Nα,Nε-di-(3,5-Dihydroxynaphthyl-2-carbonyl)-L-L-lye Benzyl Ester], the IC50 is more than 5000 nM. With `Cc1ccc(C(c2ccccc2)(c2ccccc2)n2cnc(C[C@H](NC(=O)c3cc(O)c4cccc(O)c4n3)C(=O)NCCc3ccc(O)c(O)c3)c2)cc1` [Example 71, N-[Nα-(4,8-Dihydroxyquinoline-2-carbonyl)-Nτ-methyltrityl-L-histidinyl]dopamine], the IC50 came to 607 nM.

Source of the values: US6528655B1, “Aromatic derivatives with HIV integrase inhibitory properties” (Pharmacor, Inc., priority 2000, dated 2003).
